Data reported in patent US20260263429A1, “INHIBITORS OF CA 2+/CALMODULIN-DEPENDENT PROTEIN KINASE II (CAMKII) THAT DO NOT INHIBIT LONG-TERM POTENTIATION (LTP) INDUCTION AND THERAPEUTIC USES THEREOF” (The Regents of the University of Colorado, A Body Corporate, priority 2023, published 2026).
Like-named read-outs stand apart in the source and are kept apart here.

What was measured:
purified CaMKIIα = purified CaMKIIα (Homo sapiens, UniProt Q9UQM7); assay: In vitro kinase reactions with purified CaMKIIα (GluA1 S831, T286, GluN2B S1303 phosphorylation); assay type: biochemical; design: made in house; host or cells: baculovirus/Sf9 (CaMKIIα); BL21 bacteria (CaM); conditions: for Ki: 1 mM ATP, 30° C., AS283 0.41-10 μM, Cheng-Prusoff with Km ATP 33.3 μM
Description: (§1) In a series of exemplary methods, an in vitro kinase assay was used where purified CaMKIIα is incubated at 30° C. with GST-GluA1 alongside ATP. CaMKIIα normally phosphorylates S831 on the GluA1 subunit and this phosphorylation can be measured as a readout of CaMKIIα enzymatic activity (see e.g., FIG. 8B). […] In another exemplary method, binding of purified CaMKIIα to immobilized GST-GluN2B-c was induced by Ca^2+/CaM in the presence of a vehicle (none), 4 mM ADP or with […] AS105. […] At the same time, two exemplary methods were performed to observe ionomycin or chemical LTP (cLTP) induced co-localization of CaMKII and GluN2B either in HEK293 cells co-expressing GFP-CaMKII and mCherry-2BC or dissociated rat hippocampal cultures expressing GFP-CaMKII and mCh-PSD95 intrabody. HEK293 cells, incubating with vehicle or 10 μM AS105, were subjected to ionomycin. Hippocampal cultures, also incubating with either vehicle or 10 μM AS105, were treated with a chemical LTP (cLTP) stimulus (e.g., 100 μM glutamate, 10 μM glycine for 45 seconds). Confocal microscopy images were taken before and after each stimulus.
Therefore, in another exemplary method, the ability of AS283 to selective inhibit CAMKII enzymatic activity without interfering with its binding to GluN2B was tested. In a first method, in vitro kinase reactions were performed at 30° C. in 1 mM ATP measuring purified CaMKIIα phosphorylation of GST-GluA1 S831 with varying concentrations of AS283 (0.41-10 μM).
(§2) One possible mechanism by which AS283 could enhance GluN2B binding more than ATP is by suppressing CaMKII-mediated phosphorylation of GluN2B at S1303, as this phosphorylation within the CaMKII binding site on GluN2B reduces CaMKII binding.
(§3) In vitro phosphorylation assays. CaMKII-mediated phosphorylation of GluA1 S831 was measured by in vitro kinase reaction with purified GST-GluA1 c-terminal tail. Reactions contained 40 nM CaMKII (or water for negative controls), 1 μM GST-GluA1, 50 mM PIPES pH 7.1, 2 mM CaCl2), 10 mM MgCl2, 1 μM calmodulin, 1-4 mM ATP, and 1 PM of okadaic acid. Reactions were done at 30° C. for 20 s; reactions were stopped by adding SDS-loading buffer and incubation in a boiling water bath for 5 min. GST, phospho-S831, CaMKII, phospho-T286, or phospho-S1303 were detected in the samples by immunoblot analysis.
Km and Ki determination. The inhibition constant Ki was calculated using the Cheng-Prusoff equation for competitive inhibition: Ki=IC50/(1+[ATP]/Km).

[1] = system: CaMKIIα binding to GST-GluN2B-c
Description: as §1, §2
Bound CaMKII was measured via immunoblot.

CaMKII F89G = CaMKII F89G (Homo sapiens, UniProt Q9UQM7, F89G); assay: In vitro kinase assay with CaMKII F89G mutant; assay type: biochemical; conditions: 10 μM NM-PP1
Description: This conclusion also predicts that the LTP stimulus-induced movement of CaMKII to excitatory synapses should be (i) impaired in the CaMKII F89G mutant; but (ii) normalized by pharmacogenetic rescue with NM-PP1. Indeed, both predictions were observed experimentally (FIGS. 4D-4E).
as §3

SMILES: NCCNc1cccc(-c2ccnc3[nH]c4ccccc4c23)c1 [AS283]
- Ki (purified CaMKIIα; read-out: apparent Ki, autophosphorylation of T286 (pT286)): 71 nM
- Ki (purified CaMKIIα; read-out: apparent Ki, phosphorylation of GluA1 S831 (pS831)): 17 nM
- CaMKII-mediated S1303 phosphorylation of wild type GluN2B C-terminus (purified CaMKIIα; purified CaMKII and GST-2BC): inhibited the CaMKII-mediated S1303 phosphorylation
- CaMKII binding to immobilized GluN2B compared to a control without nucleotide or inhibitor ([1]; 10 μM inhibitor, EGTA wash, immunoblot): increased CaMKII binding
- CaMKII binding to GluN2B in the presence of ADP ([1]; 1 mM ADP, AS283 10 μM): did not inhibit CaMKII binding to GluN2B
- Ca2+/CaM-induced CaMKII binding to immobilized WT GluN2B when ATP was substituted ([1]; AS283 versus 1 mM ATP): significantly enhanced
- enhancing effect on CaMKII binding to GluN2B S1303A mutant compared with ATP ([1]; phosphorylation-incompetent GluN2B S1303A): indistinguishable

SMILES: CC(C)(C)n1nc(Cc2cccc3ccccc23)c2c(N)ncnc21 [NM-PP1]
- effect on pT286 of CaMKII wildtype (purified CaMKIIα; in vitro kinase reaction in ATP): did not affect pT286
- residual enzymatic activity of CaMKII F89G (CaMKII F89G): still further reduced
